From patent publication US20260248763A1 (BIO GENUINE (SHANGHAI) BIOTECH CO., LTD, priority 2023, published 2026)

target: T1, OTR (Homo sapiens, UniProt P30559); test: Ca2+ mobilization in cells stably expressing OTR (FLIPR, antagonist mode); type: cell-based; conditions: OTR/HEK293 stably transfected cell line
T1 construct: expressed in transfected cells; host or cells: OTR/HEK293 stably transfected cell line
T1 sequence (P30559 1-389): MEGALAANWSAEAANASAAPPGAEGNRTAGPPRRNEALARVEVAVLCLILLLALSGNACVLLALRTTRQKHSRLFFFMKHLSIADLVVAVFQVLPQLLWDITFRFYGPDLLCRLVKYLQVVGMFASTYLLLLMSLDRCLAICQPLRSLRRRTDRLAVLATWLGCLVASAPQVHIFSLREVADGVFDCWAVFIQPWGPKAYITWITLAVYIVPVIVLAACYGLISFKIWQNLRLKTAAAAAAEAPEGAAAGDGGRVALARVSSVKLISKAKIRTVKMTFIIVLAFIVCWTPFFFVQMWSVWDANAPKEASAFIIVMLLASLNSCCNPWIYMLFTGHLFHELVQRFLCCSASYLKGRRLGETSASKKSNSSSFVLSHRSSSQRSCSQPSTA
Source text: Test Example 1. Determination of the Effect of the Compound of the Present Disclosure on Ca^2+ Mobilization in Cells Stably Expressing OTR
To measure the antagonistic effect of the compound of the present disclosure on OTR activity expressed in the OTR/HEK293 stably transfected cell line.
• DMEM medium (Invitrogen, 11965) • F12 medium (Invitrogen, 11765) • Fetal bovine serum (Excell, FSP500) • Geneticin (Invitrogen, 10131) • Penicillin/Streptomycin (Invitrogen, SV30010) • Fluo-4 Direct kit (Invitrogen, F10471) • 384-well cell plate (Greiner, 781090) • 384-well compound plate (Greiner, 781280)
• FLIPR instrument (Molecular Device) • EHCO instrument (Labcyte) • Cell counter (Beckman, Vi-cell XR)
The cultured cells were washed twice with pre-heated DPBS and digested with appropriate amount of trypsin at 37° C. for 1 minute, and then appropriate amount of culture medium was added to terminate digestion. The cells were centrifuged at 1000 rpm for 5 minutes. The supernatant was gently discarded without disturbing the cell pellet at the bottom. The cells were resuspended in culture medium and 1 mL was taken out for cell counting and viability assessment using Vi-CELL™. The cells were diluted to 1×10^6 cells/mL (20,000 cells/20 μL) with culture medium, seeded into a 384-well cell plate and incubated at 37° C. with 5% CO2 for 16-20 h.
Formulation of 250 mM Probenecid solution: according to the kit instructions, 1 mL of FLIPR buffer salt solution was added to 77 mg of probenecid, prepared fresh just before use. Formulation of Fluo-4 Direct™ (2×, 8 μM) loading buffer: according to the kit instructions, the required amount of Fluo-4 Direct™ was taken out and thawed in advance, 10 mL of FLIPR buffer salt solution and 0.2 mL of 250 mM Probenecid solution were added to each tube, and the mixture was vortexed in the dark for >5 minutes, prepared fresh just before use.
Preparation of agonist reference compound plate: the agonist was diluted 3-fold in 10 points using ECHO, and 750 nL was transferred to the corresponding compound plate using ECHO.
Preparation of reference and test compound plates: the test compound was diluted 3-fold in 10 points with ECHO, and 900 nL was transferred to the corresponding compound plate; the reference compound was diluted 3-fold in 10 points with assay buffer salt solution, and 30 μL was transferred to the compound plate.
30 μL of assay buffer salt solution was added to the corresponding compound plate, and the mixture was centrifuged at 1000 rpm for 1 minute.
The cell plate prepared the day before was taken out of the incubator, and 20 μL of 2×Fluo-4 Direct™ buffer was added to each well, with a total volume of 40 μL.
The plate was incubated in an incubator at 37° C. with 5% CO2 for 50 minutes, and then placed at room temperature for 10 minutes.
The compound plate, cell plate, and pipette tips were placed into the instrument.
For the agonist reference compound plate: the FLIPR instrument software was run, 10 μL of the pre-determined concentration of agonist reference compound was added to the cell plate following the preset protocol, and the fluorescence signal was read. After reading, the data were exported to calculate the EC80 for each cell line, and the agonist at 6×EC80 concentration was prepared.
For the compound plate: the FLIPR instrument software was run, 10 μL of the pre-determined concentration of test compound and the reference compound were added to the cell plate following the preset protocol, and the fluorescence signal was read. 10 μL of the reference compound agonist at 6×EC80 concentration was added to the cell plate, and the fluorescence signal was read. For antagonist detection of the compound, the data were exported using the “Max-Min” and “Read 1 to Maximum allowed” methods in the software, and the data were fitted using Prism.

SMILES | IC50 [nM]
CON=C1C[C@@H](c2nc3ccccc3o2)N(C(=O)c2ccc(-c3ccccc3C)cc2)C1 [Example A0086, (S, EZ)-(2-(Benzo[d]oxazol-2-yl)-4-(methoxyimino)pyrrolidin-1-yl)(2′-methyl-[1, 1′-biphenyl]-4-yl)methanone] | 237
CO/N=C1\C[C@@H](CO)N(C(=O)c2ccc(-c3cccc(C#N)c3C)c(OC)c2)C1 [Example A0248, (S,E)-4′-(2-(Hydroxymethyl)-4-(methoxyimino)pyrrolidine-1-carbonyl)-2′-methoxy-2-methyl-[1,1′-biphenyl]-3-carbonitrile] | 57.8
CO/N=C1\C[C@@H](CNC(=O)OC)N(C(=O)c2ccc(-c3ccccc3C)cc2)C1 [Example C0004, Methyl (S, E)-((4-(methoxyimino)-1-(2′-methyl-[1,1′-biphenyl]-4-carbonyl)pyrrolidin-2-yl)methyl)carbamate] | 628
CO/N=C1\C[C@@H](CO)N(C(=O)c2ccc(-c3cccc(C#N)c3C)cc2F)C1 [Example C0156, (S,E)-3′-Fluoro-4′-(2-(hydroxymethyl)-4-(methoxyimino)pyrrolidine-1-carbonyl)-2-methyl-[1,1′-biphenyl]-3-carbonitrile] | 73.6
CO/N=C1/CN(C(=O)c2ccc(-c3ccccc3C)cc2)C2(COC2)C1 [Example A0112, (E)-(7-(Methoxyimino)-2-oxa-5-azaspiro[3.4]octan-5-yl)(2′-methyl-[1, 1′-biphenyl]-4-yl)methanone] | 815
CO/N=C1\CN(C(=O)c2ccc(-c3ccccc3C)cc2)C(CO)(CO)C1 [Example A0083, (Z)-(2,2-Bis(hydroxymethyl)-4-(methoxyimino)pyrrolidin-1-yl)(2′-methyl-[1, 1′-biphenyl]-4-yl)methanone] | 539
CO/N=C1/C[C@@H](CO)N(C(=O)c2cc(C(F)(F)F)c(-c3cccc(C)c3C)cn2)C1 [Example C0071, (S, Z)-(5-(2,3-Dimethylphenyl)-4-(trifluoromethyl)pyridin-2-yl)(2-(hydroxymethyl)-4-(methoxyimino)pyrrolidin-1-yl)methanone] | 237
CO/N=C1/C[C@@H](CO)N(C(=O)c2cnc(-c3cccc(C#N)c3C)cn2)C1 [Example A0251, (S,Z)-3-(5-(2-(Hydroxymethyl)-4-(methoxyimino)pyrrolidine-1-carbonyl)pyrazin-2-yl)-2-methylbenzonitrile] | 363
CO/N=C1\CN(C(=O)c2ccc(-c3ccccc3C)cc2)C2(COC2)C1 [Example A0041, (Z)-(7-(Methoxyimino)-2-oxa-5-azaspiro[3.4]octan-5-yl)(2′-methyl-[1, 1′-biphenyl]-4-yl)methanone] | 575
CO/N=C1\C[C@@H](CNC(C)=O)N(C(=O)c2ccc(-c3ccccc3C)cc2)C1 [Example C0003, (S, E)-N-((4-(Methoxyimino)-1-(2′-methyl-[1,1′-biphenyl]-4-carbonyl)pyrrolidin-2-yl)methyl)acetamide] | 2330
CO/N=C1/C[C@@H](CO)N(C(=O)c2cnc(-c3ccccc3C)s2)C1 [Example C0030, (S, Z)-(2-(Hydroxymethyl)-4-(methoxyimino)pyrrolidin-1-yl)(2-(o-tolyl)thiazol-5-yl)methanone] | 1820
CO/N=C1/C[C@@H](CO)N(C(=O)c2ccc(-c3cccc(C#N)c3C)c3ncnn23)C1 [Example A0190, (S, Z)-3-(5-(2-(Hydroxymethyl)-4-(methoxyimino)pyrrolidine-1-carbonyl)-[1,2,4]triazolo[1,5-a]pyridin-8-yl)-2-methylbenzonitrile] | 1510
CO/N=C1/C[C@@H](CO)N(C(=O)c2ccc(-c3cccc(C#N)c3C(F)(F)F)cc2)C1 [Example C0127, (S, Z)-4′-(2-(Hydroxymethyl)-4-(methoxyimino)pyrrolidine-1-carbonyl)-2-(trifluoromethyl)-[1,1′-biphenyl]-3-carbonitrile] | 102
COCCNc1nc(C(=O)N2C/C(=N\OC)C[C@H]2CO)ccc1-c1cccc(C#N)c1C [Example A0197, (S, Z)-3-(6-(2-(Hydroxymethyl)-4-(methoxyimino)pyrrolidine-1-carbonyl)-2-((2-methoxyethyl)amino)pyridin-3-yl)-2-methylbenzonitrile] | 403
CO/N=C1/CCN(C(=O)c2ccc(-c3cccc(C#N)c3C)cc2)[C@H](CO)C1 [Example A0249, (S,Z)-4′-(2-(Hydroxymethyl)-4-(methoxyimino)piperidine-1-carbonyl)-2-methyl-[1,1′-biphenyl]-3-carbonitrile] | 3060
CO/N=C1/C[C@@H](CO)N(C(=O)c2ccc(-c3cccc(C(F)F)c3C)c3c2OCCO3)C1 [Example C0137, (S,Z)-(8-(3-(Difluoromethyl)-2-methylphenyl)-2,3-dihydrobenzo[b][1,4]dioxin-5-yl)(2-(hydroxymethyl)-4-(methoxyimino)pyrrolidin-1-yl)methanone] | 7.43
CO/N=C1\C[C@@H](CO)N(C(=O)c2ccc(-c3cccc(C#N)c3C)cc2)C1 [Example C0057, (S, E)-4′-(2-(Hydroxymethyl)-4-(methoxyimino)pyrrolidine-1-carbonyl)-2-methyl-[1,1′-biphenyl]-3-carbonitrile] | 82.9
CO/N=C1\CC[C@@H](CO)N(C(=O)c2ccc(-c3cccc(C#N)c3C)cc2)C1 [Example A0234, (S, E)-4′-(2-(Hydroxymethyl)-5-(methoxyimino)piperidine-1-carbonyl)-2-methyl-[1,1′-biphenyl]-3-carbonitrile] | 242
CO/N=C1/C[C@@H](CO)N(C(=O)c2ccc(-c3cccc4c3CCC4)cc2)C1 [Example C0051, (S, Z)-(4-(2,3-Dihydro-1H-inden-4-yl)phenyl)(2-(hydroxymethyl)-4-(methoxyimino)pyrrolidin-1-yl)methanone] | 115
CON=C1C[C@@H](CO)N(C(=O)c2ncc(-c3cccc(C)c3C)nn2)C1 (single isomer, unassigned) [Example C0109] | 367
CO/N=C1\C[C@@H]([C@H](C)O)N(C(=O)c2ccc(-c3cccc(C#N)c3C)cc2)C1 (single isomer, unassigned) [Example C0110] | 98.1
CO/N=C1/C[C@@H](CO)N(C(=O)c2ccc(-c3cccc(C)c3C#N)cc2)C1 [Example A0130, (S, Z)-4′-(2-(Hydroxymethyl)-4-(methoxyimino)pyrrolidine-1-carbonyl)-3-methyl-[1,1′-biphenyl]-2-carbonitrile] | 647
CO/N=C1/C[C@@H](CO)N(C(=O)c2ccc(-c3cccc(C#N)c3C(F)F)cc2)C1 [Example A0204, 2-(Difluoromethyl)-3-(4-[(2S, 4Z)-2-(hydroxymethyl)-4-(methoxyimino)pyrrolidine-1-carbonyl]phenyl)benzonitrile] | 156
CO/N=C1\C[C@@H](CO)N(C(=O)c2ccc(-c3ccc(F)c(C#N)c3C)c3c2OCCO3)C1 [Example C0148, (S,E)-6-Fluoro-3-(8-(2-(hydroxymethyl)-4-(methoxyimino)pyrrolidine-1-carbonyl)-2,3-dihydrobenzo[b][1,4]dioxin-5-yl)-2-methylbenzonitrile] | 158
